From PubChem BioAssay (NCI) come the findings set out here.

The TGI is the concentration at which net growth stops.

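The compound was tested at five concentrations on cells cultured in 96-well plates, with a 48-hour exposure period. At the TGI there is no net growth.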

Among the test systems are ACHN renal; HCC-2998 colon; HCT-15 colon; HS 578T breast; HT29 colon; M14 melanoma; NCI-H226 lung; NCI-H522 lung; NCI/ADR-RES ovarian; OVCAR-8 ovarian; SF-268 CNS; SK-MEL-2 melanoma; SK-MEL-28 melanoma; SNB-75 CNS; DU-145 prostate; TK-10 renal.
What all share (test): DTP human tumour cell line panel, 48 h

For the molecule `Cc1csc2nc3[nH]ncc3c(=O)n12`, the concentration for total growth inhibition (TGI) in the assay on ACHN renal, in the assay on HCC-2998 colon, with HCT-15 colon, in the assay on HS 578T breast, in the assay with HT29 colon and in the assay with M14 melanoma was greater than 100 µM throughout. Besides, the TGI in the assay with NCI-H226 lung, with NCI-H522 lung, in the assay on NCI/ADR-RES ovarian, in the assay on OVCAR-8 ovarian, in the assay with SF-268 CNS and in the assay on SK-MEL-2 melanoma was greater than 100 µM in each case. The concentration for total growth inhibition (TGI) with SK-MEL-28 melanoma and with SNB-75 CNS was greater than 100 µM throughout.

As for `COc1ccc(/C=C2\CN(C)CC3C2=NC(=S)NC3c2ccc(OC)cc2)cc1` (stereo unspecified), the TGI in the assay on ACHN renal was greater than 100 µM; with DU-145 prostate it was 26.4 µM; in the assay with HCC-2998 colon, greater than 100 µM; in the assay on HCT-15 colon, greater than 100 µM; in the assay with HS 578T breast it was greater than 100 µM; in the assay on HT29 colon it was 83.1 µM. In addition, the TGI in the assay with M14 melanoma was 15.8 µM; in the assay on NCI-H226 lung, greater than 100 µM; with NCI-H522 lung, greater than 20.8 µM; with NCI/ADR-RES ovarian, 19.1 µM; with OVCAR-8 ovarian, greater than 100 µM; with SF-268 CNS it was greater than 100 µM. Besides, the TGI in the assay on SK-MEL-2 melanoma was greater than 64.8 µM; in the assay with SK-MEL-28 melanoma, greater than 100 µM; in the assay with TK-10 renal it was greater than 100 µM.

With `C/C(=N\NC(=S)NNC(=S)N(C)c1ccccc1)c1ccccn1`, the TGI in the assay with ACHN renal is greater than 53.6 µM; in the assay with DU-145 prostate, greater than 100 µM; with HCC-2998 colon, greater than 100 µM; in the assay with HCT-15 colon, greater than 100 µM; in the assay with HS 578T breast, greater than 100 µM; in the assay with HT29 colon, greater than 100 µM. The total growth inhibition concentration (TGI) is 2.56 µM with M14 melanoma; 6.85 µM with NCI-H226 lung; 55.4 µM with NCI/ADR-RES ovarian; greater than 100 µM with OVCAR-8 ovarian; greater than 89 µM in the assay with SF-268 CNS; greater than 100 µM in the assay with SK-MEL-2 melanoma. Further, the total growth inhibition concentration (TGI) in the assay with SK-MEL-28 melanoma, in the assay on SNB-75 CNS and in the assay with TK-10 renal was greater than 100 µM in each case.

Regarding `COc1cc(C2(O)c3ccccc3C3=NCCN32)cc(OC)c1OC` (stereo unspecified), the TGI with ACHN renal, in the assay on DU-145 prostate, in the assay with HCC-2998 colon, with HCT-15 colon, in the assay with HS 578T breast and in the assay with HT29 colon was greater than 100 µM in each case. The TGI with NCI-H226 lung, in the assay on NCI/ADR-RES ovarian, in the assay on SF-268 CNS, in the assay on SK-MEL-2 melanoma, in the assay on SK-MEL-28 melanoma and with SNB-75 CNS was greater than 100 µM in each case. This molecule returned a total growth inhibition concentration (TGI) with TK-10 renal greater than 100 µM.

For the molecule `N/C(COc1ccc(Cl)cc1)=N\NC(=O)c1ccncc1`, the TGI in the assay with ACHN renal, with DU-145 prostate, in the assay with HCC-2998 colon, in the assay with HCT-15 colon, in the assay with HS 578T breast and in the assay with HT29 colon was greater than 100 µM each time. Besides, the TGI in the assay on M14 melanoma, in the assay with NCI-H522 lung, with NCI/ADR-RES ovarian, in the assay on OVCAR-8 ovarian, in the assay on SF-268 CNS and in the assay on SK-MEL-2 melanoma was greater than 100 µM each time. Also, the TGI in the assay on SK-MEL-28 melanoma was greater than 100 µM; with SNB-75 CNS, 85.2 µM; with TK-10 renal, greater than 100 µM.

For the molecule `COc1ccc(NS(=O)c2ccc(OC)cc2)cc1` (stereo unspecified), the concentration for total growth inhibition (TGI) with ACHN renal, in the assay on DU-145 prostate, in the assay with HCC-2998 colon, in the assay with HCT-15 colon, in the assay with HS 578T breast and in the assay on HT29 colon was greater than 100 µM in each case. Further, the total growth inhibition concentration (TGI) was greater than 100 µM with M14 melanoma; greater than 100 µM in the assay with NCI-H226 lung; greater than 100 µM with NCI-H522 lung; greater than 100 µM in the assay with NCI/ADR-RES ovarian; greater than 100 µM with OVCAR-8 ovarian; 74.4 µM in the assay on SF-268 CNS. The figures for the TGI in the assay on SK-MEL-2 melanoma, in the assay on SK-MEL-28 melanoma and in the assay on TK-10 renal were 83.6 µM, greater than 100 µM and greater than 100 µM, respectively.

As to `COc1ccc(/C(C)=N/NC(=O)c2ccncc2)cc1OC`, the concentration for total growth inhibition (TGI) in the assay with DU-145 prostate, with HCC-2998 colon, in the assay on HCT-15 colon, with HS 578T breast, in the assay with M14 melanoma and in the assay with NCI-H226 lung was greater than 10 µM in each case. The total growth inhibition concentration (TGI) in the assay with NCI/ADR-RES ovarian, with SF-268 CNS and in the assay on SNB-75 CNS was greater than 10 µM in each case.

Take `Fc1ccc(Nc2nnc(-c3ccccn3)s2)cc1`: the total growth inhibition concentration (TGI) in the assay on ACHN renal, in the assay on DU-145 prostate, with HCT-15 colon, with HS 578T breast, in the assay with HT29 colon and in the assay with M14 melanoma was greater than 100 µM in each case. Besides, the TGI in the assay on NCI-H522 lung, with NCI/ADR-RES ovarian, in the assay with OVCAR-8 ovarian, in the assay with SF-268 CNS, with SK-MEL-2 melanoma and with SK-MEL-28 melanoma was greater than 100 µM in each case. In the assay on TK-10 renal, this molecule came in with a TGI greater than 100 µM.

`CC[N+]1(C)CCC(O)(/C=C/c2ccc(Cl)cc2)C(C(=O)/C=C/c2ccc(Cl)cc2)C1` (stereo unspecified): the TGI in the assay with ACHN renal is 13.6 µM; in the assay on DU-145 prostate, 27.6 µM; in the assay with HCC-2998 colon it was 45.1 µM; in the assay with HCT-15 colon, greater than 51.6 µM; with HS 578T breast, greater than 30.1 µM; with HT29 colon it was 14.1 µM. Moreover, the concentration for total growth inhibition (TGI) with M14 melanoma was greater than 38 µM; in the assay on NCI/ADR-RES ovarian it was 39.7 µM; in the assay on OVCAR-8 ovarian it was 51 µM; with SF-268 CNS, greater than 60.6 µM; with SK-MEL-2 melanoma, 39 µM; in the assay with SK-MEL-28 melanoma, 23.2 µM. Besides, the TGI was 26.7 µM in the assay on SNB-75 CNS and 13 µM in the assay with TK-10 renal.

Consider `CC(=O)OC[C@@H](OC(C)=O)[C@@H](OC(C)=O)[C@H]1OC[C@@H]2C[C@H]([C@H]1OC(C)=O)N(Cc1ccccc1)O2`, for which the TGI in the assay on ACHN renal, in the assay with DU-145 prostate, with HCC-2998 colon, in the assay with HS 578T breast, in the assay on HT29 colon and in the assay with M14 melanoma was greater than 100 µM in each case. Besides, the TGI in the assay with NCI-H226 lung, with NCI/ADR-RES ovarian, in the assay on SF-268 CNS, with SK-MEL-2 melanoma, with SK-MEL-28 melanoma and with SNB-75 CNS was greater than 100 µM throughout. The molecule further registered a total growth inhibition concentration (TGI) in the assay on TK-10 renal greater than 100 µM.
